Measured values from article PMC10545790.
Values after ≈ are worked out from the molar mass of the structure shown. Values joined by “and” are separate entries in the source; they are usually repeats but may differ in a detail not shown here. Identical values can stand only once. “Also recorded” adds a separate entry of the source. Like-named read-outs stand apart in the source and are kept apart here.

Legend:
ABL1 kinase = ABL1 kinase (Homo sapiens, UniProt P00519); settings: for Luminescence, Raw Data (LUM): ADP-Glo
physchem = settings: pH 7.4, logD (7.4): experimental distribution coefficient in n-octanol/phosphate-buffered saline
[1] = Metabolic stability in human liver microsomes; settings: both, human, liver microsomes (pooled)
human liver microsomes = assay: Metabolic stability in human liver microsomes; settings: human liver microsomes
[2] = Kinetic solubility in phosphate-buffered saline, pH 7.4; settings: 25 °C, pH 7.4, aqueous buffer, kinetic from dmso stock

ABL1 kinase, sequence (P00519 whole entry): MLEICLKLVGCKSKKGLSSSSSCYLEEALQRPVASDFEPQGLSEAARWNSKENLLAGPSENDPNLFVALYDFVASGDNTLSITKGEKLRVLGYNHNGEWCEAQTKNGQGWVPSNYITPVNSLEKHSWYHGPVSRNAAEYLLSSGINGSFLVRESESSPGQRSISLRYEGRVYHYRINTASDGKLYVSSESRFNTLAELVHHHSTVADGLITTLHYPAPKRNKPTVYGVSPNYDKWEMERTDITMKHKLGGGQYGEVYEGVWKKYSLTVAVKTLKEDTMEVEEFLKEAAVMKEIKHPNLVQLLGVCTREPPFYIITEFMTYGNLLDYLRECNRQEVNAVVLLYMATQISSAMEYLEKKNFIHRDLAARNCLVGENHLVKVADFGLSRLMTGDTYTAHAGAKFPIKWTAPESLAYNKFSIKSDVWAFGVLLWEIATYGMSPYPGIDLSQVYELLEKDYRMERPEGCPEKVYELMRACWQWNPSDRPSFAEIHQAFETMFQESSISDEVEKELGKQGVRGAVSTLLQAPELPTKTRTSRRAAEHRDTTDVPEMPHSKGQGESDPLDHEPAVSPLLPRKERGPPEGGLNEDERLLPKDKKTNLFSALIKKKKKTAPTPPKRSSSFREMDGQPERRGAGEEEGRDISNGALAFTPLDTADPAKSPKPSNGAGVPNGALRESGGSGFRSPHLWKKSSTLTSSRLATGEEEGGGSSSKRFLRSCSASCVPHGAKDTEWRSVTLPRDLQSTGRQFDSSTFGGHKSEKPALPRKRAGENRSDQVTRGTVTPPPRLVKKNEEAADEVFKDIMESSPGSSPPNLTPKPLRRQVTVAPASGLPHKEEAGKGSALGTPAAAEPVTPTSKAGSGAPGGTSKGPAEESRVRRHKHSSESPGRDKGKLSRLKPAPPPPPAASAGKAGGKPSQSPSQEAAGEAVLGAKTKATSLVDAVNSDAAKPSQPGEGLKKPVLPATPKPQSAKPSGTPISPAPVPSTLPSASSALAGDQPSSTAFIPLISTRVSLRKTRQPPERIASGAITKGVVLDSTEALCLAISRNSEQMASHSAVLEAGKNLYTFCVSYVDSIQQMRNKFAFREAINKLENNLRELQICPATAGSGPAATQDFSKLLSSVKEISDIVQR

Cc1ccc(NC(=O)C23CCC(CN4CCN(C)CC4)(CC2)CC3)cc1Nc1nccc(-c2cccnc2)n1 [Compound 86]
inhibitory effect on the catalytic activity of ABL1 kinase (in words) (ABL1 kinase; ADP-Glo Kinase Assay, 12 concentration points): did not observe any significant inhibitory effect; also recorded: inactive
Luminescence, Raw Data (LUM) (ABL1 kinase; 1st run, plate ABL1_CpdsTitr_Read1, single wells, compound 15 nM): 2281 and 2169
Luminescence, Raw Data (LUM) (ABL1 kinase; 1st run, plate ABL1_CpdsTitr_Read1, single wells, compound 29 nM): 2495 and 2464
Luminescence, Raw Data (LUM) (ABL1 kinase; 1st run, plate ABL1_CpdsTitr_Read1, single wells, compound 59 nM): 2134 and 2384
Luminescence, Raw Data (LUM) (ABL1 kinase; 1st run, plate ABL1_CpdsTitr_Read1, single wells, compound 117 nM): 2291 and 2227
Luminescence, Raw Data (LUM) (ABL1 kinase; 1st run, plate ABL1_CpdsTitr_Read1, single wells, compound 234 nM): 1059 and 1099
Luminescence, Raw Data (LUM) (ABL1 kinase; 1st run, plate ABL1_CpdsTitr_Read1, single wells, compound 469 nM): 1247 and 1531
Luminescence, Raw Data (LUM) (ABL1 kinase; 1st run, plate ABL1_CpdsTitr_Read1, single wells, compound 938 nM): 1347 and 1294
Luminescence, Raw Data (LUM) (ABL1 kinase; 1st run, plate ABL1_CpdsTitr_Read1, single wells, compound 1500 nM): 981 and 1352
Luminescence, Raw Data (LUM) (ABL1 kinase; 1st run, plate ABL1_CpdsTitr_Read1, single wells, compound 1875 nM): 1222 and 1248
Luminescence, Raw Data (LUM) (ABL1 kinase; 1st run, plate ABL1_CpdsTitr_Read1, single wells, compound 3000 nM): 1174 and 1245
Luminescence, Raw Data (LUM) (ABL1 kinase; 1st run, plate ABL1_CpdsTitr_Read1, single wells, compound 3750 nM): 1755 and 1091
Luminescence, Raw Data (LUM) (ABL1 kinase; 1st run, plate ABL1_CpdsTitr_Read1, single wells, compound 7500 nM): 1238 and 1673
Luminescence, Raw Data (LUM) (ABL1 kinase; 2nd run, plate ABL1_CpdsTitr2_Read1, single wells, compound 15 nM): 4011 and 3702 and 3072 and 2792
Luminescence, Raw Data (LUM) (ABL1 kinase; 2nd run, plate ABL1_CpdsTitr2_Read1, single wells, compound 59 nM): 6124 and 5895 and 5335 and 5300
Luminescence, Raw Data (LUM) (ABL1 kinase; 2nd run, plate ABL1_CpdsTitr2_Read1, single wells, compound 117 nM): 6960 and 7005 and 6427 and 6079
Luminescence, Raw Data (LUM) (ABL1 kinase; 2nd run, plate ABL1_CpdsTitr2_Read1, single wells, compound 234 nM): 5660 and 5387 and 5152 and 5142
Luminescence, Raw Data (LUM) (ABL1 kinase; 2nd run, plate ABL1_CpdsTitr2_Read1, single wells, compound 469 nM): 5734 and 5920 and 6125 and 5475
Luminescence, Raw Data (LUM) (ABL1 kinase; 2nd run, plate ABL1_CpdsTitr2_Read1, single wells, compound 938 nM): 6593 and 6264 and 5955 and 5731
Luminescence, Raw Data (LUM) (ABL1 kinase; 2nd run, plate ABL1_CpdsTitr2_Read1, single wells, compound 1500 nM): 5936 and 5810 and 4992 and 5316
Luminescence, Raw Data (LUM) (ABL1 kinase; 2nd run, plate ABL1_CpdsTitr2_Read1, single wells, compound 1875 nM): 6498 and 6064 and 6232 and 5788
Luminescence, Raw Data (LUM) (ABL1 kinase; 2nd run, plate ABL1_CpdsTitr2_Read1, single wells, compound 3000 nM): 4358 and 4452 and 3565 and 4254
Luminescence, Raw Data (LUM) (ABL1 kinase; 2nd run, plate ABL1_CpdsTitr2_Read1, single wells, compound 3750 nM): 5848 and 6030 and 5487 and 5693
Luminescence, Raw Data (LUM) (ABL1 kinase; 2nd run, plate ABL1_CpdsTitr2_Read1, single wells, compound 7500 nM): 5593 and 5845 and 6001 and 5417
logD (physchem): 2.7
k el at 2 µM ([1]; pH 7.4): ~0.0001 s⁻¹
microsomal CLint at 2 µM ([1]; pH 7.4): 16 µL/min/mg
remaining at 40 min, 2 µM ([1]; pH 7.4, % Remaining without cofactor, Mean of 2, human liver microsomes, NADPH-cofactor system substituted with phosphate buffer): 106%
remaining at 7 min, 2 µM ([1]; pH 7.4, % Remaining, Mean of 2, human liver microsomes with NADPH, 7 min): 100%
remaining at 0.25 h, 2 µM ([1]; pH 7.4, % Remaining, Mean of 2, human liver microsomes with NADPH, 15 min): 96%
remaining at 25 min, 2 µM ([1]; pH 7.4, % Remaining, Mean of 2, human liver microsomes with NADPH, 25 min): 81%
remaining at 40 min, 2 µM ([1]; pH 7.4, % Remaining, Mean of 2, human liver microsomes with NADPH): 81%
half-life at 2 µM ([1]; pH 7.4, t1/2: half-time of a metabolic decomposition, human liver microsomes, 2 μM compound, NADPH, 37 °C): 1.78 h
CLint (human liver microsomes): 16
t1/2: half-time of a metabolic decomposition (human liver microsomes; 2 μM compound, NADPH, 37 °C): ~1.785 h
solubility kinetic at 2 h [2]: 113 µM (≈ 59.4 µg/mL)
